Data: PMC11839852, “Preclinical comparison of (radio)lanthanides using mass spectrometry and nuclear imaging techniques: biodistribution of lanthanide-based tumor-targeting agents and lanthanides in ionic form” (European Journal of Nuclear Medicine and Molecular Imaging, 2024)
Marks after values point to notes of the source that are not given here.

Assays:
AR42J tumor cells = assay: In vitro cell uptake of lanthanide chloride salts; type: cell-based, rat
Protocol: (§1) A mixture of equal molar amounts of the lanthanide chloride salts (100 nM stock solutions of ^natLuCl3, ^natTbCl3, ^natGdCl3, and ^natEuCl3, diluted in saline with an adjusted pH value to 3.5‒4.0) was prepared to obtain a final concentration of 10 pmol/mL (2.5 pmol/mL per lanthanide salt) and tested with AR42J, PC-3 PIP and KB tumor cells according to the same protocol as described for the Ln-labeled biomolecules (Supplementary Material). Analogous in vitro cell uptake studies were also performed with lanthanide metal complexes of diethylenetriaminepentaacetic acid (DTPA, Sigma Aldrich Chemie, Steinheim, Germany) to obtain a final concentration of 10 pmol/mL (2.5 pmol/mL per lanthanide complex) (Supplementary Material).
(§2) Cell uptake studies were performed in triplicate in 3‒6 independent experiments and the results presented as the average ± standard deviation (SD). Data were normalized to the values measured for the ^175Lu-labeled tumor targeting agent or [^175Lu]LuCl3, which were set as 100% and zero was defined as 0%. Statistical significance of the normalized data was assessed for the comparison of the values obtained for terbium, gadolinium and europium analogues with those obtained for the lutetium counterparts by applying one-way ANOVA with the Dunnett’s post-test using GraphPad Prism software (version 8). A p-value of < 0.05 was considered statistically significant.
(§3) Methods: The same experimental setting as described for Ln-labeled biomolecules was applied to perform uptake and internalization studies with the lanthanide salts (LnCl3; Ln = ^natLu, ^natTb, ^natGd and ^natEu). The applied solution was a mixture of the four lanthanide salts yielding a final concentration of 0.4 µM. Of these mixtures, 25 μL were added to the corresponding well with tumor cells. The cells were incubated for 1 h and 4 h, respectively, at 37 °C and 5% CO2. After incubation, the tumor cells were treated as described for the Ln-labeled biomolecules and processed for the measurement with ICP-MS.

PC-3 PIP tumor cells = assay: In vitro cell uptake of lanthanide chloride salts; type: cell-based, human; conditions: both incubation times
Protocol: as §1, §2, §3

[1] = tested on: non-tumor-bearing immunocompetent FVB mice; assay: Biodistribution of lanthanide chloride salts LnCl3 (multiplexed ICP-MS); type: in vivo; conditions: for Tissue uptake: Blood / Tissue uptake: Bone / Tissue uptake: Brain / Tissue uptake: Heart / Tissue uptake: Intestines / Tissue uptake: Kidneys / Tissue uptake: Liver / Tissue uptake: Lung / Tissue uptake: Muscle / Tissue uptake: Pancreas / Tissue uptake: Salivary glands / Tissue uptake: Spleen / Tissue uptake: Stomach: non-tumor-bearing mice
[2] = 24 h p.i., estimated ratios (organ <0.5% ID/g)
[3] = 96 h p.i., estimated ratios (organ <0.5% ID/g)

For [Cl][Gd]([Cl])[Cl] [[^157Gd]GdCl3], the “Detected fraction after acid-wash compared with lutetium” value (AR42J tumor cells; 1 h incubation) was “significantly lower”, the “Fraction retained after acid-wash compared with lutetium” value (PC-3 PIP tumor cells) was “higher” and the “Organ ratios: Blood-to-bone” value ([1]; 1 h p.i.) was 0.37 ± 0.01. The “Organ ratios: Blood-to-liver” value ([1]; 1 h p.i.) was 0.14 ± 0.02, the “Organ ratios: Liver-to-bone” value ([1]; 1 h p.i.) was 2.6 ± 0.4 and the “Tissue uptake: Blood” value ([1]; 1 h p.i.) was 4.9 ± 0.3 % ID/g. The “Tissue uptake: Bone” value ([1]; 1 h p.i.) was 13 ± 1 % ID/g, the “Tissue uptake: Brain” value ([1]; 1 h p.i.) was 1.0 ± 0.6 % ID/g and the “Tissue uptake: Heart” value ([1]; 1 h p.i.) was 5.0 ± 1.7 % ID/g. For the same compound, the “Tissue uptake: Intestines” value ([1]; 1 h p.i.) was 2.5 ± 0.8 % ID/g, the “Tissue uptake: Kidneys” value ([1]; 1 h p.i.) was 8.0 ± 2.0 % ID/g and the “Tissue uptake: Liver” value ([1]; 1 h p.i.) was 34 ± 4 % ID/g. For the same compound, the “Tissue uptake: Lung” value ([1]; 1 h p.i.) was 4.8 ± 0.4 % ID/g, the “Tissue uptake: Muscle” value ([1]; 1 h p.i.) was 1.6 ± 0.6 % ID/g and the “Tissue uptake: Pancreas” value ([1]; 1 h p.i.) was 2.2 ± 0.4 % ID/g. The “Tissue uptake: Salivary glands” value ([1]; 1 h p.i.) was 2.8 ± 1.3 % ID/g, the “Tissue uptake: Spleen” value ([1]; 1 h p.i.) was 6.3 ± 0.9 % ID/g and the “Tissue uptake: Stomach” value ([1]; 1 h p.i.) was 6.2 ± 1.7 % ID/g. The “Organ ratios: Liver-to-bone” value ([1]; 24 h p.i.) was 2.2 ± 0.5, the “Organ ratios: Blood-to-bone” value [1, 2] was <0.03^* and the “Organ ratios: Blood-to-liver” value [1, 2] was <0.02^*. For the same compound, the “Tissue uptake: Blood” value ([1]; 24 h p.i.) was under 0.5 % ID/g, the “Tissue uptake: Bone” value ([1]; 24 h p.i.) was 14 ± 2 % ID/g and the “Tissue uptake: Brain” value ([1]; 24 h p.i.) was under 0.5 % ID/g. For the same compound, the “Tissue uptake: Heart” value ([1]; 24 h p.i.) was 1.2 ± 0.1 % ID/g, the “Tissue uptake: Intestines” value ([1]; 24 h p.i.) was 0.71 ± 0.04 % ID/g and the “Tissue uptake: Kidneys” value ([1]; 24 h p.i.) was 4.0 ± 0.9 % ID/g. For the same compound, the “Tissue uptake: Lung” value ([1]; 24 h p.i.) was 1.3 ± 0.1 % ID/g, the “Tissue uptake: Muscle” value ([1]; 24 h p.i.) was 1.1 ± 0.8 % ID/g and the “Tissue uptake: Pancreas” value ([1]; 24 h p.i.) was 0.61 ± 0.11 % ID/g. For the same compound, the “Tissue uptake: Salivary glands” value ([1]; 24 h p.i.) was 0.77 ± 0.16 % ID/g, the “Tissue uptake: Spleen” value ([1]; 24 h p.i.) was 5.7 ± 1.1 % ID/g and the “Tissue uptake: Stomach” value ([1]; 24 h p.i.) was 2.6 ± 0.1 % ID/g. For the same compound, the “Tissue uptake: Liver” value ([1]; 24 h p.i., listed as gadolinium) was 31 ± 6 % ID/g, the “Tissue uptake: Liver” value ([1]; 24 h p.i., listed as natGd) was ~ 31 % ID/g and the “Organ ratios: Liver-to-bone” value ([1]; 96 h p.i.) was 1.1 ± 0.2. The “Organ ratios: Blood-to-bone” value [1, 3] was <0.03^*, the “Organ ratios: Blood-to-liver” value [1, 3] was <0.03^* and the “Tissue uptake: Blood” value ([1]; 96 h p.i.) was under 0.5 % ID/g. The “Tissue uptake: Bone” value ([1]; 96 h p.i.) was 17 ± 3 % ID/g, the “Tissue uptake: Brain” value ([1]; 96 h p.i.) was under 0.5 % ID/g and the “Tissue uptake: Heart” value ([1]; 96 h p.i.) was 1.2 ± 0.1 % ID/g. The “Tissue uptake: Intestines” value ([1]; 96 h p.i.) was 0.66 ± 0.07 % ID/g, the “Tissue uptake: Kidneys” value ([1]; 96 h p.i.) was 2.0 ± 0.1 % ID/g and the “Tissue uptake: Liver” value ([1]; 96 h p.i.) was 18 ± 1 % ID/g. For the same compound, the “Tissue uptake: Lung” value ([1]; 96 h p.i.) was 1.1 ± 0.2 % ID/g, the “Tissue uptake: Muscle” value ([1]; 96 h p.i.) was 0.51 ± 0.12 % ID/g and the “Tissue uptake: Pancreas” value ([1]; 96 h p.i.) was 0.53 ± 0.10 % ID/g. For the same compound, the “Tissue uptake: Salivary glands” value ([1]; 96 h p.i.) was 0.60 ± 0.08 % ID/g, the “Tissue uptake: Spleen” value ([1]; 96 h p.i.) was 3.6 ± 0.3 % ID/g and the “Tissue uptake: Stomach” value ([1]; 96 h p.i.) was 3.1 ± 0.8 % ID/g.

With [Cl-].[Cl-].[Cl-].[Eu+3] [[^153Eu]EuCl3] the “Lanthanide uptake compared with [175Lu]LuCl3” value (AR42J tumor cells) was “lower uptake”, the “Organ ratios: Blood-to-bone” value ([1]; 1 h p.i.) was 0.40 ± 0.05 and the “Organ ratios: Blood-to-liver” value ([1]; 1 h p.i.) was 0.14 ± 0.02. The “Organ ratios: Liver-to-bone” value ([1]; 1 h p.i.) was 3.0 ± 0.4, the “Tissue uptake: Blood” value ([1]; 1 h p.i.) was 5.5 ± 0.6 % ID/g and the “Tissue uptake: Bone” value ([1]; 1 h p.i.) was 14 ± 2 % ID/g. For the same compound, the “Tissue uptake: Brain” value ([1]; 1 h p.i.) was 1.2 ± 0.9 % ID/g, the “Tissue uptake: Heart” value ([1]; 1 h p.i.) was 5.3 ± 2.1 % ID/g and the “Tissue uptake: Intestines” value ([1]; 1 h p.i.) was 2.6 ± 0.9 % ID/g. The “Tissue uptake: Kidneys” value ([1]; 1 h p.i.) was 8.1 ± 2.1 % ID/g, the “Tissue uptake: Liver” value ([1]; 1 h p.i.) was 41 ± 5 % ID/g and the “Tissue uptake: Lung” value ([1]; 1 h p.i.) was 4.8 ± 1.1 % ID/g. For the same compound, the “Tissue uptake: Muscle” value ([1]; 1 h p.i.) was 1.7 ± 1.0 % ID/g, the “Tissue uptake: Pancreas” value ([1]; 1 h p.i.) was 2.2 ± 1.0 % ID/g and the “Tissue uptake: Salivary glands” value ([1]; 1 h p.i.) was 2.7 ± 1.7 % ID/g. The “Tissue uptake: Spleen” value ([1]; 1 h p.i.) was 6.9 ± 1.6 % ID/g, the “Tissue uptake: Stomach” value ([1]; 1 h p.i.) was 6.0 ± 2.3 % ID/g and the “Organ ratios: Liver-to-bone” value ([1]; 24 h p.i.) was 2.7 ± 0.8. The “Organ ratios: Blood-to-bone” value [1, 2] was <0.04^*, the “Organ ratios: Blood-to-liver” value [1, 2] was <0.01^* and the “Tissue uptake: Blood” value ([1]; 24 h p.i.) was under 0.5 % ID/g. For the same compound, the “Tissue uptake: Bone” value ([1]; 24 h p.i.) was 14 ± 3 % ID/g, the “Tissue uptake: Brain” value ([1]; 24 h p.i.) was under 0.5 % ID/g and the “Tissue uptake: Heart” value ([1]; 24 h p.i.) was 1.0 ± 0.1 % ID/g. For the same compound, the “Tissue uptake: Intestines” value ([1]; 24 h p.i.) was 0.58 ± 0.06 % ID/g, the “Tissue uptake: Kidneys” value ([1]; 24 h p.i.) was 3.8 ± 0.9 % ID/g and the “Tissue uptake: Lung” value ([1]; 24 h p.i.) was 1.1 ± 0.2 % ID/g. The “Tissue uptake: Muscle” value ([1]; 24 h p.i.) was under 0.5 % ID/g, the “Tissue uptake: Pancreas” value ([1]; 24 h p.i.) was under 0.5 % ID/g and the “Tissue uptake: Salivary glands” value ([1]; 24 h p.i.) was 0.53 ± 0.17 % ID/g. The “Tissue uptake: Spleen” value ([1]; 24 h p.i.) was 5.6 ± 1.1 % ID/g, the “Tissue uptake: Stomach” value ([1]; 24 h p.i.) was 1.9 ± 0.5 % ID/g and the “Tissue uptake: Liver” value ([1]; 24 h p.i., listed as europium) was 37 ± 7 % ID/g. For the same compound, the “Tissue uptake: Liver” value ([1]; 24 h p.i., listed as natEu) was ~ 37 % ID/g, the “Organ ratios: Liver-to-bone” value ([1]; 96 h p.i.) was 1.3 ± 0.2 and the “Organ ratios: Blood-to-bone” value [1, 3] was <0.03^*. For the same compound, the “Organ ratios: Blood-to-liver” value [1, 3] was <0.02^*, the “Tissue uptake: Blood” value ([1]; 96 h p.i.) was under 0.5 % ID/g and the “Tissue uptake: Bone” value ([1]; 96 h p.i.) was 18 ± 3 % ID/g. The “Tissue uptake: Brain” value ([1]; 96 h p.i.) was under 0.5 % ID/g, the “Tissue uptake: Heart” value ([1]; 96 h p.i.) was 0.83 ± 0.05 % ID/g and the “Tissue uptake: Intestines” value ([1]; 96 h p.i.) was 0.53 ± 0.04 % ID/g. The “Tissue uptake: Kidneys” value ([1]; 96 h p.i.) was 1.9 ± 0.1 % ID/g, the “Tissue uptake: Liver” value ([1]; 96 h p.i.) was 23 ± 1 % ID/g and the “Tissue uptake: Lung” value ([1]; 96 h p.i.) was 0.88 ± 0.15 % ID/g. The “Tissue uptake: Muscle” value ([1]; 96 h p.i.) was under 0.5 % ID/g, the “Tissue uptake: Pancreas” value ([1]; 96 h p.i.) was under 0.5 % ID/g and the “Tissue uptake: Salivary glands” value ([1]; 96 h p.i.) was under 0.5 % ID/g. For the same compound, the “Tissue uptake: Spleen” value ([1]; 96 h p.i.) was 3.5 ± 0.3 % ID/g and the “Tissue uptake: Stomach” value ([1]; 96 h p.i.) was 2.3 ± 0.3 % ID/g.
